From US12612386B2, “Heteroaryl-triazole compounds as pesticides” (Bayer Aktiengesellschaft, priority 2020, dated 2026)

Legend:
Type in all cases: in vivo
[1] = test system: larvae of the banded cucumber beetle (Diabrotica balteata); assay: Diabrotica balteata spray test; details: 168 h, 100 g/ha (=32 μg/well), after 7 days, read-out: efficacy (seedling growth)
Procedure, shortened: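 Efficacy is seedling survival after 7 days, where 0% means no seedlings grew and 100% means growth equal to untreated, uninfested controls. Wheat seedlings, germinated on agar for 1 day, were sprayed with the aqueous emulsifier dilution (acetone/DMF solvent) and then exposed to 10–20 banded cucumber beetle larvae.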

[2] = test system: green peach aphid (Myzus persicae); assay: Myzus persicae spray test (MYZUPE); details: 120 h; for mortality at 100 g/ha: after 5 days
Procedure, shortened: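 Percent aphid kill, with 0% meaning none killed, was read 5 days after spraying. The preparation (acetone–DMF solvent, water with 1000 ppm emulsifier) was applied to Brassica pekinensis leaf disks carrying mixed-instar green peach aphids.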

[3] = test system: larvae of the southern green stink bug (Nezara viridula); assay: whole plant or invertebrate; details: 96 h
Procedure, shortened: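 Percent mortality of southern green stink bug larvae was recorded at day 4, with 100% meaning all dead. The larvae were placed on barley sprayed with the test solution. That solution was prepared from acetone/dimethylformamide concentrate diluted in emulsifier-containing water (1000 ppm).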

[4] = test system: fall armyworm larvae (Spodoptera frugiperda); assay: whole plant or invertebrate; details: 168 h
Procedure, shortened: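 Percent kill of Spodoptera frugiperda caterpillars, read 7 days after infestation of dried, spray-treated Zea mays leaf pieces. Spray preparation: compound in acetone plus dimethylformamide, diluted with emulsifier-containing water.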

[5] = test system: adult mosquitoes Aedes aegypti strain MONHEIM; assay: Aedes aegypti test (AEDSAE surface treatment & contact assay); details: 24 hours after contact, read-out: efficacy (mortality); for mortality at 4 mg/m2: surface concentration 4 mg/m^2, 30 min exposure; for mortality at 20 mg/m2: surface concentration 20 mg/m^2, 30 min exposure
Method: Aedes aegypti Test (AEDSAE Surface Treatment & Contact Assay)
(§1) Solvent: Aceton+2000 ppm rapeseed oil methyl ester (RME)
(§2) This solution is pipetted onto a glazed tile and after evaporation of the acetone, adult mosquitoes of the species Aedes aegypti strain MONHEIM are placed onto the dried surface. The exposure time is 30 minutes. Mortality in percent (%) is determined 24 hours after contact of the insects to the treated surface. 100% mortality means that all tested insects are dead, whereas 0% means that no insect died.

[6] = test system: adult flies Musca domestica strain WHO-N; assay: Musca domestica test (MUSCDO surface treatment & contact assay); details: 24 hours after contact, read-out: efficacy (mortality); for mortality at 20 mg/m2: surface concentration 20 mg/m^2, 30 min exposure; for mortality at 4 mg/m2: surface concentration 4 mg/m^2, 30 min exposure
Method: Musca domestica Test (MUSCDO Surface Treatment & Contact Assay)
as §1
as §2, with “flies” for “mosquitoes”, “Musca domestica” for “Aedes aegypti”, “WHO-N” for “MONHEIM”

[7] = test system: cattle tick larvae (Rhipicephalus microplus), strain Parkhurst, resistant against synthetic pyrethroids; assay: Rhipicephalus (Boophilus) microplus in-vitro contact test, larval cattle tick; details: 5 μg/cm^2 (=500 g/ha), after 48 hours
Method: Rhipicephalus (Boophilus) Microplus—In-Vitro Contact Tests Larval Cattle Tick (Strain Parkhurst, Resistant Against Synthetic Pyrethroids)
(§3) 9 mg compound is solved in 1 mL acetone and diluted with acetone to the desired concentration. 250 μL of the test solution is filled in 25 mL glass test tubes and homogeneously distributed on the inner walls by rotation and tilting on a shaking device (2 h at 30 rpm). With a compound concentration of 900 ppm, an inner surface of 44.7 cm^2 and a homogeneous distribution, a dose of 5 μg/cm^2 is achieved.
After the solvent has evaporated, each test tube is filled with 20-50 cattle tick larvae (Rhipicephalus microplus), closed with a perforated lid and incubated in a horizontal position at 85% relative humidity and 27° C. in an incubator. After 48 hours efficacy is determined. The larvae are patted on the ground of the tubes and negative geotactic behavior is recorded.
An efficacy of 100% means all larvae are dead or moribund; 0% means no larvae are dead or moribund.

[8] = test system: adult cat fleas (Ctenocephalides felis); assay: Ctenocephalides felis in-vitro contact test, adult cat flea; details: 5 μg/cm^2 (=500 g/ha), after 48 hours
Method: Ctenocephalides felis—In-Vitro Contact Tests Adult Cat Flea
as §3
(§4) After the solvent has evaporated, each test tube is filled with 5-10 adult cat fleas (Ctenocephalides felis), closed with a perforated lid and incubated in a lying position at room temperature and relative humidity. After 48 hours efficacy is determined. The fleas are patted on the ground of the tubes and are incubated on a heating plate at 45-50° C. for at most 5 minutes. Immotile or uncoordinated moving fleas, which are not able to escape the heat by climbing upwards, are marked as dead or moribund.
An efficacy of 100% means all fleas are dead or moribund; 0% means no fleas are dead or moribund.

[9] = test system: adult brown dog ticks (Rhipicephalus sanguineus); assay: Rhipicephalus sanguineus in-vitro contact test, adult brown dog ticks; details: 48 h, read-out: efficacy (ticks dead or moribund)
Method: Rhipicephalus sanguineus—In-Vitro Contact Tests with Adult Brown Dog Ticks
as §3
as §4, with “brown dog ticks (Rhipicephalus sanguineus),” for “cat fleas (Ctenocephalides felis),”, “ticks” for “fleas”, “ticks,” for “fleas,”
An efficacy of 100% means all ticks are dead or moribund; 0% means no ticks are dead or moribund.

[10] = test system: brown planthopper (Nilaparvata lugens); assay: Nilaparvata lugens spray test; details: 96 h
Procedure, shortened: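 Rice plants (Oryza sativa) sprayed with compound formulated in acetone/DMF with alkylarylpolyglycol ether emulsifier (1000 ppm in diluting water), then infested with planthoppers. Mortality (%) scored after 4 days; 100% = all insects killed, 0% = none killed.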

[11] = test system: adult mosquitoes Culex quinquefasciatus strain P00; assay: Culex quinquefasciatus test (CULXFA surface treatment & contact assay); details: 24 hours after contact, read-out: efficacy (mortality); for mortality at 4 mg/m2: surface concentration 4 mg/m^2, 30 min exposure; for mortality at 20 mg/m2: surface concentration 20 mg/m^2, 30 min exposure
Method: Culex quinquefasciatus Test (CULXFA Surface Treatment & Contact Assay)
as §1
as §2, with “Culex quinquefasciatus” for “Aedes aegypti”, “P00” for “MONHEIM”

[12] = test system: adult animals Blattella germanica strain PAULINIA; assay: Blattella germanica test (BLTTGE surface treatment & contact assay); details: 24 hours after contact, read-out: efficacy (mortality)
Method: Blattella germanica Test (BLTTGE Surface Treatment & Contact Assay)
as §1
In order to produce a sufficient, active ingredient containing solution it is necessary to solve the test compound in the solvent-mix (acetone at 2 mg/ml/RME 2000 ppm). This solution is pipetted onto a glazed tile and after evaporation of the acetone, adult animals of the species Blattella germanica strain PAULINIA are placed onto the dried surface. The exposure time is 30 minutes.
Mortality in percent (%) is determined 24 hours after contact of the insects to the treated surface. 100% mortality means that all tested insects are dead, whereas 0% means that no insect died.

| Compound | pest or weed control at 32 µg/disc, 100 g/ha [1] [%] | mortality at 100 g/ha [2] [%] | mortality at 500 g/ha [3] [%] | mortality at 100 g/ha [4] [%] | mortality at 4 mg/m2 [5] [%] | mortality at 20 mg/m2 [5] [%] | mortality at 20 mg/m2 [6] [%] | efficacy (larvae dead or moribund) [7] [%] | efficacy (fleas dead or moribund) [8] [%] | pest or weed control at 5 µg/cm2, 500 g/ha [9] [%] | mortality at 500 g/ha [10] [%] | mortality at 4 mg/m2 [6] [%] | other results |
| --- | --- | --- | --- | --- | --- | --- | --- | --- | --- | --- | --- | --- | --- |
| CNC(=O)c1cc(-n2ncnc2[C@H](C)NC(=O)c2cc(Cl)cc(S(=O)(=O)C(F)(F)F)c2)ncn1 [I-86] | 100 | 100 | 100 | 100 | 80 to 100 | 80 to 100 | 80 to 100 |  |  |  |  |  | Emax at 4 g/ha ([2]; MYZUPE, 4 g ai/ha, 5 dat (Table 4), read-out: % Efficacy): 100%; Emax at 20 g/ha ([2]; MYZUPE, 20 g ai/ha, 5 dat (Table 4), read-out: % Efficacy): 100%; Emax at 100 g/ha ([2]; MYZUPE, 100 g ai/ha, 5 dat (Table 4), read-out: % Efficacy): 100%; Emax at 20 g/ha ([4]; SPODFR, 20 g ai/ha, 7 dat (Table 4), read-out: % Efficacy): 100%; Emax at 100 g/ha ([4]; SPODFR, 100 g ai/ha, 7 dat (Table 4), read-out: % Efficacy): 100% |
| Cc1nc([C@H](C)NC(=O)c2cc(C(F)(F)F)cc(C(F)(F)F)c2)n(-c2cc(C#N)ncn2)n1 [I-5] | 100 | 90 |  | 100 |  | 80 to 100 |  | 100 | 90 | 100 |  |  |  |
| C[C@H](NC(=O)c1cc(Br)cc(Br)c1)c1ncnn1-c1cc(C(N)=O)ncn1 [I-34, 6-[5-[(1S)-1-[(3,5-dibromobenzoyl)amino]ethyl]-1,2,4-triazol-1-yl]pyrimidine-4-carboxamide] | 100 | 90 | 100 | 100 | 80 to 100 | 80 to 100 |  | 100 | 100 | 100 |  |  | mortality at 100 g/ha [3]: 100% |
| C[C@H](NC(=O)c1cc(OC(F)F)cc(OC(F)F)c1)c1ncnn1-c1cc(C(N)=O)ncn1 [I-93] | 100 | 100 | 100 | 100 | 80 to 100 | 80 to 100 | 80 to 100 |  |  |  | 100 | 80 to 100 | mortality at 4 mg/m2 [11]: 80 to 100%; mortality at 20 mg/m2 [11]: 80 to 100%; mortality at 4 mg/m2 ([12]; surface concentration 4 mg/m^2, 30 min exposure): 80 to 100%; mortality at 20 mg/m2 ([12]; surface concentration 20 mg/m^2, 30 min exposure): 80 to 100% |
| C[C@H](NC(=O)c1cc(OC(F)(F)F)cc(S(=O)(=O)C(F)F)c1)c1ncnn1-c1cc(C#N)ncn1 [I-20] | 100 | 100 |  | 100 | 80 to 100 | 80 to 100 | 80 to 100 |  |  |  |  |  | mortality at 20 mg/m2 [11]: 80 to 100% |
| C[C@H](NC(=O)c1cc(OC(F)(F)F)cc(C2(C#N)CC2)c1)c1nc(C2CC2)nn1-c1cc(C(N)=O)ncn1 [I-33] | 100 |  |  | 100 | 80 to 100 | 80 to 100 | 80 to 100 | 100 | 100 |  | 100 | 80 to 100 | mortality at 4 mg/m2 [11]: 80 to 100%; mortality at 20 mg/m2 [11]: 80 to 100% |
| CCN(C)C(=O)c1cc(-n2ncnc2[C@H](C)NC(=O)c2cc(C(F)(F)F)cc(C(F)(F)F)c2)ncn1 [I-64] | 100 | 90 | 100 | 100 |  |  |  | 100 | 100 | 100 | 100 |  |  |
| C[C@H](NC(=O)c1cc(OC(F)(F)F)cc(OC(F)(F)F)c1)c1nc(C2CC2)nn1-c1cc(C(N)=O)ncn1 [I-36] | 100 |  |  | 100 |  | 80 to 100 | 80 to 100 | 100 |  | 80 |  | 80 to 100 |  |
| C[C@H](NC(=O)c1cc(C#N)cc(OC(F)(F)F)c1)c1nc(C2CC2)nn1-c1cc(C(N)=O)ncn1 [I-39] | 100 |  |  | 100 |  |  | 80 to 100 |  |  |  | 100 | 80 to 100 |  |
| CC(NC(=O)c1cc(OC(F)(F)F)cc(C2CC2)c1)c1ncnn1-c1cc(C#N)ncn1 (stereo not shown) [I-8, N-{1-[1-(6-cyanopyrimidin-4-yl)-1H-1,2,4-triazol-5-yl]ethyl}-3-cyclopropyl-5-(trifluoromethoxy)benzamide] | 100 | 90 |  | 100 | 80 to 100 | 80 to 100 | 80 to 100 | 100 |  |  | 100 |  |  |
| C[C@H](NC(=O)c1cc(Br)cc(OC(F)F)c1)c1ncnn1-c1cc(C#N)ncn1 [I-3] | 100 | 90 | 90 | 100 |  | 80 to 100 |  | 100 | 100 | 100 |  |  | mortality at 100 g/ha [3]: 90% |
| C[C@H](NC(=O)c1cc(OC(F)(F)F)cc(C2CC2)c1)c1ncnn1-c1cc(C#N)ncn1 [I-10] | 100 |  |  | 100 | 80 to 100 | 80 to 100 | 80 to 100 | 100 |  |  |  |  |  |
